Experiment [1] deals with PBMCs. Briefly: Cytostim-induced cytokine production in PBMCs. It is filed as cell-based. To be noted: Homo sapiens, PBMC. How it is done: As a means of assessing PI3Kδ-dependent cell function, cytostim-induced IL-4, IL-5, IL-13 and IFNγ production in PBMCs were evaluated by Luminex multiplex assay. All healthy volunteers were recruited by Quintiles Limited (London, UK), and blood samples were delivered to Respivert Ltd. This study was approved by the local Ethics Committee, and all subjects gave written informed consent.
PBMC suspensions (200 μL; 2×10^6 cells/mL) were added to a 96-well plate. Cells were treated with either test compounds in neat DMSO or DMSO as vehicle (2 μL) and incubated at RT for 1 hr. Cytostim (Miltentyi Biotec, Surrey, UK) was introduced at a ratio of 1:50 and the cells were incubated for 20 hr (37° C.; 5% CO2). Plates were spun at 500×g for 5 min and the supernatant collected. A high sensitivity cytokine magnetic bead kit (#HSCYTMAG-60SK, Millipore, Watford, UK) was used to measure the four analytes (IL-4, IL-5, IL-13 and IFNγ) by Luminex as follows: The magnetic antibody beads were multiplexed and incubated in a 96-well plate with standard, media only or sample (50 μL) overnight with shaking at 4° C. After washing twice with Millipore wash buffer provided in the kit using a magnetic plate washer, the beads were incubated for 1 hr with detection antibody (50 μL) with shaking at RT. A streptavidin-phycoerythrin solution provided in the kit was added for 30 min with shaking at RT. After washing, the beads were re-suspended in sheath fluid (150 μL) and analysed immediately. The Luminex system was set up to count 50 beads and the amount of each analyte in the supernatant was calculated against a standard curve. The IC50 values were determined from concentration-inhibition curves using XL-Fit (IDBS, Guildford, UK)

Experiment [2] concerns neutrophils from COPD patients. Nature of the experiment: CXCL8 release from neutrophils obtained from COPD patients. It is filed as cell-based. The settings on record: Homo sapiens, Neutrophil; read-out: REC50, TNFα-induced CXCL8 in neutrophils from COPD patients. As for the experimental part:
The effects of treatment on CXCL8 release from neutrophils obtained from COPD patients were evaluated by an ELISA assay. All patients were recruited by Quintiles Limited (London, UK), and blood samples were delivered to Respivert Ltd. This study was approved by the local Ethics Committee, and all subjects gave written informed consent. Whole blood (30 mL) was mixed gently with ACD (5 mL; comprising: 7.36 g citric acid, 14.71 g sodium citrate, 9.91 g dextrose in 250 ml sterile, double distilled water) and 6% dextran (15 mL; diluted in 0.9% NaCl) to remove the red blood cells. The tubes were incubated at RT for 45 min, and the supernatant (white cell rich fraction) was then collected, leaving the red blood cells.
This fraction was centrifuged (10 min at 1200 rpm, 4° C.) with low braking. The supernatant was aspirated and the pellet was re-suspended in ice-cold, sterile double distilled H2O (10 mL), and 0.6 M KCl (4 mL) was added 30 seconds later. […]
Neutrophils were pre-incubated with test compounds or with DMSO vehicle for 1 hr and then stimulated with TNFα (10 ng/mL). Cell free supernatant was collected at 3 hr after TNFα stimulation, and CXCL8 was measured by ELISA using DuoSet ELISA development kit (R&D systems, Abingdon, UK). The IC50 values reported were determined from concentration-inhibition curves using XL-Fit (IDBS, Guildford, UK).

For experiment [3], the system named is cigarette smoke-induced cell accumulation and biomarkers in murine BALF. Briefly: Cigarette smoke model. It is filed as in vivo, A/J mice. As for the experimental part:
A/J mice (males, 5 weeks old) were exposed to cigarette smoke (4% cigarette smoke, diluted with compressed air) for 30 min/day for 11 days using a Tobacco Smoke Inhalation Experiment System for small animals (Model SIS-CS; Sibata Scientific Technology, Tokyo, Japan). Test substances were administered once daily for 3 days after the final cigarette smoke exposure (intra-nasal dose comprising 35 μL of solution in 50% DMSO/isotonic saline).
At 12 hr after administration of the last dose, animals were anesthetized, the trachea was cannulated and bronchial alveolar lavage (BAL) was carried out by the instillation into and then withdawal from the lungs, of PBS (100 mL/kg). Total cell numbers in the BALF samples were measured using a haemocytometer under a phase-contrast microscope. The proportions of alveolar macrophages and neutrophils were determined by FACS analysis using anti-mouse MOMA2-FITC (macrophage) or anti-mouse 7/4 (neutrophil).
Cells were suspended in PBS and were incubated with anti-MOMA2-FITC (2 μg/mL, Catalogue no SM065F, Acris Antibodies GmbH, Herford, Germany) or anti-7/4-FITC (2 μg/mL, Catalogue no CL050F, Acris Antibodies GmbH, Herford, Germany) for 30 min at 30° C., and also counterstained with propidium iodide (2 μg/mL) to allow exclusion of necrotic cells. The cells were washed with PBS, and transferred to FACS tubes. Samples was set in a flow cytometer (ALTRA II; Beckman Coulter Japan, Tokyo, Japan), and a single-parameter FL2 [PMT2] (FITC) histogram with log x-axis was plotted to illustrate relative intensity of FITC.
Data files are stored for subsequent analysis using Kaluza analysis software (ver. 1.2) to calculate the proportion of each cell type. The levels of CXCL1(KC), MCP1, TNFα, IL-17 or osteopontin in BALF were determined using Quentikine® mouse KC, MCP1, TNFα, IL-17 or osteopontin ELISA kit (R&D systems, Inc., Minneapolis, Minn., USA). The presence of malondialdehyde was measured using OxiSelect® TBARS Assay Kit (MDA Quantitation; Cell Biolabs Inc, San Diego, Calif., USA).

Where [4] appears, read: CS + Compound (I) 0.02 mg/mL intra-nasal.
Where [5] appears, read: CS + Compound (I) 0.2 mg/mL intra-nasal.
Where [6] appears, read: CS + Compound (I) 2 mg/mL intra-nasal.

Molecules are shown by their SMILES. Where two headings read alike, the source gives them in different places. Some results are limits rather than exact numbers.

Broadly, the IC50 is the concentration needed to halve the response being measured. Turning to `COCCOCCOCC#Cc1cccc2nc(Cn3nc(-c4cc(O)cc(F)c4)c4c(N)ncnc43)n(Cc3ccccc3C(F)(F)F)c(=O)c12` [Compound (I), 2-((4-Amino-3-(3-fluoro-5-hydroxyphenyl)-1H-pyrazolo[3,4-d]pyrimidin-1-yl)methyl)-5-(3-(2-(2-methoxyethoxy)ethoxy)prop-1-yn-1-yl)-3-(2-(trifluoromethyl)benzyl)quinazolin-4(3H)-one], the IC50 in experiment [1] (read-out: IC50, Cytostim-induced IFNγ in PBMCs) was 13.8 nM; in experiment [1] (read-out: IC50, Cytostim-induced IL-4 in PBMCs), less than 1.4 nM; in experiment [1] (read-out: IC50, Cytostim-induced IL-5 in PBMCs) it was less than 1.4 nM; in experiment [1] (read-out: IC50, Cytostim-induced IL-13 in PBMCs), less than 1.4 nM. Further, in experiment [2], the EC50 was 2.2 nM. Moreover, the Cell numbers in BAL, Macrophages, % inhibition in experiment [3] (setting [4]) was 32%; in experiment [3] (setting [5]), 0.2 (63) %; in experiment [3] (setting [6]) it was 0.3 (79) %. For the same molecule, the “Cell numbers in BAL, Neutrophils, % inhibition” value in experiment [3] (setting [4]) is 0.2 (26) %; in experiment [3] (setting [5]), 54%; in experiment [3] (setting [6]), 0.1 (68) %. In addition, in experiment [3] (contemporaneous study, FIG. 2), the “potency versus compound A, cigarette-smoke induced cell accumulation in murine BALF” value is recorded as “more potent inhibitor of cigarette-smoke induced cell accumulation in murine BALF than is compound A”.

Values taken from patent US20170334919A1, “2-((4-AMINO-3-(3-FLUORO-5-HYDROXYPHENYL)-1H-PYRAZOLO[3,4-D]PYRIMIDIN-1 -YL)METHYL)-3-(2-(TRIFLUORO-MET HYL)BENZYL)QUINAZOLIN-4(3H)-ONE DERIVATIVES AND THEIR USE AS PHOSPHOINOSITIDE 3-KINASE INHIBITORS” (RESPIVERT LTD., priority 2013, published 2017).
